Data reported in PubChem BioAssay AID2060599 (Molecular Pharmacology Branch, DTP, NCI, 2025).

System: 817829-284-R-J1-PDC complex spheroids, viability
Assay: Anticancer human tumor 817829-284-R-J1-PDC patient-derived colon adenocarcinoma cell line growth inhibition [CLK]
Conditions: for IC50: curve of first compound; for viability, T/C: stronger effect = lower value
Summary of the method: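 Multi-cell-type spheroids combined patient-derived tumor cells with HUVEC endothelial cells and human mesenchymal stem cells. Paired agents were dosed in half-log steps down from about clinical Cmax, or from 10 microM where Cmax was unknown.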

[1] = second compound 0.0316 µM, first compound 0.0316 µM
[2] = second compound 0.0316 µM, first compound 0.1 µM
[3] = second compound 0.0316 µM, first compound 0.316 µM
[4] = second compound 0.0316 µM, first compound 1 µM
[5] = second compound 0.0316 µM, first compound 3.16 µM
[6] = second compound 0.0316 µM, first compound 10 µM
[7] = second compound 0.1 µM, first compound 0.0316 µM
[8] = second compound 0.1 µM, first compound 0.1 µM
[9] = second compound 0.1 µM, first compound 0.316 µM
[10] = second compound 0.1 µM, first compound 1 µM
[11] = second compound 0.1 µM, first compound 3.16 µM
[12] = second compound 0.1 µM, first compound 10 µM
[13] = second compound 0.316 µM, first compound 0.0316 µM
[14] = second compound 0.316 µM, first compound 0.1 µM
[15] = second compound 0.316 µM, first compound 0.316 µM
[16] = second compound 0.316 µM, first compound 1 µM
[17] = second compound 0.316 µM, first compound 3.16 µM
[18] = second compound 0.316 µM, first compound 10 µM
[19] = second compound 1 µM, first compound 0.0316 µM
[20] = second compound 1 µM, first compound 0.1 µM
[21] = second compound 1 µM, first compound 0.316 µM
[22] = second compound 1 µM, first compound 1 µM
[23] = second compound 1 µM, first compound 3.16 µM
[24] = second compound 1 µM, first compound 10 µM
[25] = second compound 3.16 µM, first compound 0.0316 µM
[26] = second compound 3.16 µM, first compound 0.1 µM
[27] = second compound 3.16 µM, first compound 0.316 µM
[28] = second compound 3.16 µM, first compound 1 µM
[29] = second compound 3.16 µM, first compound 3.16 µM
[30] = second compound 3.16 µM, first compound 10 µM
[31] = second compound 10 µM, first compound 0.0316 µM
[32] = second compound 10 µM, first compound 0.1 µM
[33] = second compound 10 µM, first compound 0.316 µM
[34] = second compound 10 µM, first compound 1 µM
[35] = second compound 10 µM, first compound 3.16 µM
[36] = second compound 10 µM, first compound 10 µM
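Note: spheroids exposed to the agents for seven days before readout.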

`CC(C)CC(NC(=O)C(Cc1ccccc1)NC(=O)c1cnccn1)B(O)O` (stereo unspecified) + CN1CCN(c2cc(C(=O)Nc3cc4cc(-c5cnn(C)c5)ccc4cn3)ccn2)CC1 was tested, and the IC50 (second compound 0.0316 µM) was 1.09 nM, the IC50 (second compound 0.1 µM) was less than 0.949 nM and the IC50 (second compound 0.316 µM) was less than 0.949 nM. For the same molecule, the IC50 (second compound 1 µM) was less than 0.949 nM, the IC50 (second compound 3.16 µM) was less than 0.949 nM and the IC50 (second compound 10 µM) was less than 0.949 nM. For the same molecule, the viability, T/C (second compound 0.0316 µM, first compound 0.000949 µM) was 56.9%, the viability, T/C (second compound 0.0316 µM, first compound 0.003 µM) was 0.32% and the viability, T/C (second compound 0.0316 µM, first compound 0.00949 µM) was 0.15%. For the same molecule, the viability, T/C (second compound 0.0316 µM, first compound 0.03 µM) was 0.1%, the viability, T/C (second compound 0.0316 µM, first compound 0.0949 µM) was 0.08% and the viability, T/C (second compound 0.0316 µM, first compound 0.3 µM) was 0.06%. It also gave a viability, T/C (second compound 0.1 µM, first compound 0.000949 µM) of 8.37%, a viability, T/C (second compound 0.1 µM, first compound 0.003 µM) of 0.1% and a viability, T/C (second compound 0.1 µM, first compound 0.00949 µM) of 0.11%. It also gave a viability, T/C (second compound 0.1 µM, first compound 0.03 µM) of 0.08%, a viability, T/C (second compound 0.1 µM, first compound 0.0949 µM) of 0.06% and a viability, T/C (second compound 0.1 µM, first compound 0.3 µM) of 0.06%. The viability, T/C (second compound 0.316 µM, first compound 0.000949 µM) was 0.43%, the viability, T/C (second compound 0.316 µM, first compound 0.003 µM) was 0.07% and the viability, T/C (second compound 0.316 µM, first compound 0.00949 µM) was 0.09%. The viability, T/C (second compound 0.316 µM, first compound 0.03 µM) was 0.04%, the viability, T/C (second compound 0.316 µM, first compound 0.0949 µM) was 0.05% and the viability, T/C (second compound 0.316 µM, first compound 0.3 µM) was 0.05%. It also gave a viability, T/C (second compound 1 µM, first compound 0.000949 µM) of 0.08%, a viability, T/C (second compound 1 µM, first compound 0.003 µM) of 0.06% and a viability, T/C (second compound 1 µM, first compound 0.00949 µM) of 0.05%. The viability, T/C (second compound 1 µM, first compound 0.03 µM) was 0.04%, the viability, T/C (second compound 1 µM, first compound 0.0949 µM) was 0.05% and the viability, T/C (second compound 1 µM, first compound 0.3 µM) was 0.05%. It also gave a viability, T/C (second compound 3.16 µM, first compound 0.000949 µM) of 0.07%, a viability, T/C (second compound 3.16 µM, first compound 0.003 µM) of 0.06% and a viability, T/C (second compound 3.16 µM, first compound 0.00949 µM) of 0.06%. The viability, T/C (second compound 3.16 µM, first compound 0.03 µM) was 0.04%, the viability, T/C (second compound 3.16 µM, first compound 0.0949 µM) was 0.07% and the viability, T/C (second compound 3.16 µM, first compound 0.3 µM) was 0.07%. For the same molecule, the viability, T/C (second compound 10 µM, first compound 0.000949 µM) was 0.03%, the viability, T/C (second compound 10 µM, first compound 0.003 µM) was 0.06% and the viability, T/C (second compound 10 µM, first compound 0.00949 µM) was 0.09%. It also gave a viability, T/C (second compound 10 µM, first compound 0.03 µM) of 0.09%, a viability, T/C (second compound 10 µM, first compound 0.0949 µM) of 0.15% and a viability, T/C (second compound 10 µM, first compound 0.3 µM) of 0.11%.

Molecule `CC1COCCN1c1cc(C2(S(C)(=N)=O)CC2)nc(-c2ccnc3[nH]ccc23)n1` (stereo unspecified) + CN1CCN(c2cc(C(=O)Nc3cc4cc(-c5cnn(C)c5)ccc4cn3)ccn2)CC1 has an IC50 (second compound 0.0316 µM) of 84.3 nM, an IC50 (second compound 0.1 µM) of less than 31.6 nM and an IC50 (second compound 0.316 µM) of less than 31.6 nM. The IC50 (second compound 1 µM) was less than 31.6 nM, the IC50 (second compound 3.16 µM) was less than 31.6 nM and the IC50 (second compound 10 µM) was less than 31.6 nM. For the same molecule, the viability, T/C [1] was 57.2%, the viability, T/C [2] was 48.3% and the viability, T/C [3] was 34.6%. The viability, T/C [4] was 20.3%, the viability, T/C [5] was 6.12% and the viability, T/C [6] was 3.77%. It also gave a viability, T/C [7] of 14.8%, a viability, T/C [8] of 15.1% and a viability, T/C [9] of 11.9%. It also gave a viability, T/C [10] of 8.16%, a viability, T/C [11] of 4.67% and a viability, T/C [12] of 3.28%. The viability, T/C [13] was 1.94%, the viability, T/C [14] was 2.26% and the viability, T/C [15] was 1.9%. It also gave a viability, T/C [16] of 2.08%, a viability, T/C [17] of 1.38% and a viability, T/C [18] of 0.6%. The viability, T/C [19] was 0.08%, the viability, T/C [20] was 0.15% and the viability, T/C [21] was 0.11%. The viability, T/C [22] was 0.08%, the viability, T/C [23] was 0.07% and the viability, T/C [24] was 0.08%. It also gave a viability, T/C [25] of 0.53%, a viability, T/C [26] of 0.17% and a viability, T/C [27] of 0.15%. It also gave a viability, T/C [28] of 0.14%, a viability, T/C [29] of 0.14% and a viability, T/C [30] of 0.1%. The viability, T/C [31] was 0.09%, the viability, T/C [32] was 0.12% and the viability, T/C [33] was 0.13%. It also gave a viability, T/C [34] of 0.13%, a viability, T/C [35] of 0.15% and a viability, T/C [36] of 0.14%.

Molecule `O=C(c1cc(Cc2n[nH]c(=O)c3ccccc23)ccc1F)N1CCN(C(=O)C2CC2)CC1` + CN1CCN(c2cc(C(=O)Nc3cc4cc(-c5cnn(C)c5)ccc4cn3)ccn2)CC1 has an IC50 (second compound 0.0316 µM) of less than 31.6 nM, an IC50 (second compound 0.1 µM) of less than 31.6 nM and an IC50 (second compound 0.316 µM) of less than 31.6 nM. For the same molecule, the IC50 (second compound 1 µM) was less than 31.6 nM, the IC50 (second compound 3.16 µM) was less than 31.6 nM and the IC50 (second compound 10 µM) was less than 31.6 nM. It also gave a viability, T/C [1] of 49.4%, a viability, T/C [2] of 44.3% and a viability, T/C [3] of 46.2%. For the same molecule, the viability, T/C [4] was 45.6%, the viability, T/C [5] was 36.7% and the viability, T/C [6] was 26.6%. The viability, T/C [7] was 15.5%, the viability, T/C [8] was 19.8% and the viability, T/C [9] was 18.6%. The viability, T/C [10] was 20.7%, the viability, T/C [11] was 17.8% and the viability, T/C [12] was 18.6%. For the same molecule, the viability, T/C [13] was 1.83%, the viability, T/C [14] was 1.77% and the viability, T/C [15] was 2.03%. For the same molecule, the viability, T/C [16] was 1.63%, the viability, T/C [17] was 1.4% and the viability, T/C [18] was 1.54%. It also gave a viability, T/C [19] of 0.12%, a viability, T/C [20] of 0.1% and a viability, T/C [21] of 0.12%. For the same molecule, the viability, T/C [22] was 0.09%, the viability, T/C [23] was 0.12% and the viability, T/C [24] was 0.09%. The viability, T/C [25] was 0.2%, the viability, T/C [26] was 0.18% and the viability, T/C [27] was 0.17%. The viability, T/C [28] was 0.16%, the viability, T/C [29] was 0.23% and the viability, T/C [30] was 0.22%. It also gave a viability, T/C [31] of 0.06%, a viability, T/C [32] of 0.08% and a viability, T/C [33] of 0.15%. It also gave a viability, T/C [34] of 0.09%, a viability, T/C [35] of 0.18% and a viability, T/C [36] of 0.15%.
